Measurements taken from ChEMBL document CHEMBL4387717, “Structure guided drug design to develop kallikrein 5 inhibitors to treat Netherton syndrome” (Bioorg Med Chem Lett, 2019).
Converted amounts (≈) assume the structure as drawn.

How the values were obtained:
Kallikrein-8 = target: T1, Kallikrein-8 (Homo sapiens, UniProt O60259); assay: Inhibition of recombinant C-terminal 10-His tagged human KLK8 (Gln29 to Gly260 residues) expressed in mouse NS0 cells using BOC-VPR-AMC as substrate after 40 mins by fluorescence intensity assay
T1 sequence (O60259 whole entry): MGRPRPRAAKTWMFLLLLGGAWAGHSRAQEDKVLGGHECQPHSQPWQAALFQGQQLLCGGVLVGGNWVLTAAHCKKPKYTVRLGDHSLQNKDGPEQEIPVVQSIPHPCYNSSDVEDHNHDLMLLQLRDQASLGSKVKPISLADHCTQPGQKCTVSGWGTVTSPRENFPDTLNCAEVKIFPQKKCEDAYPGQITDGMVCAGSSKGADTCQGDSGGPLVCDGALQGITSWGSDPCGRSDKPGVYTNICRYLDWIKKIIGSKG

[1] = Solubility of the compound in pH 6 Britton-Robinson buffer at 24 hrs; type: physicochemical; conditions: Britton-Robinson buffer, pH 6
Homo sapiens = species on record: Homo sapiens; assay: Selectivity index, ratio of compound effect for inhibition of recombinant C-terminal 10-His tagged human urokinase (Met1 to Leu431 residues) expressed in mouse NS0 cells to compound effect for inhibition of recombinant 6His-Q-FLAG tagged human KLK5 expressed in baculovirus infected insect Sf9 cells
Plasma kallikrein = Plasma kallikrein (Homo sapiens, UniProt P03952); assay: Inhibition of recombinant C-terminal 6-His tagged human KLKB1 (Gly20 to Ala638 residues) expressed in mouse NS0 cells using P-F-R-AMC as substrate after 40 mins by fluorescence intensity assay
Plasma kallikrein, sequence (P03952 20-390 limits assumed): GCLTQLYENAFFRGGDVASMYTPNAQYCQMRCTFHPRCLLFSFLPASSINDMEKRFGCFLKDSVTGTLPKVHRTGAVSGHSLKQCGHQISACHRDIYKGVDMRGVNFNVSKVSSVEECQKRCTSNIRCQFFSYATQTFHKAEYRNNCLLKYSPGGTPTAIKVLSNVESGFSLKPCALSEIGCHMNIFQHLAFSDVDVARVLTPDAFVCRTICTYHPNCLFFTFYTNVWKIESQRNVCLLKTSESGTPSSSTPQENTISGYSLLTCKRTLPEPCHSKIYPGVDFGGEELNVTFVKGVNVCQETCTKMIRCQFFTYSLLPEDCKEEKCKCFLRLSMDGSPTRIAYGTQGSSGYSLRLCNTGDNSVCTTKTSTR
Plasma kallikrein, sequence (P03952 391-638 limits assumed): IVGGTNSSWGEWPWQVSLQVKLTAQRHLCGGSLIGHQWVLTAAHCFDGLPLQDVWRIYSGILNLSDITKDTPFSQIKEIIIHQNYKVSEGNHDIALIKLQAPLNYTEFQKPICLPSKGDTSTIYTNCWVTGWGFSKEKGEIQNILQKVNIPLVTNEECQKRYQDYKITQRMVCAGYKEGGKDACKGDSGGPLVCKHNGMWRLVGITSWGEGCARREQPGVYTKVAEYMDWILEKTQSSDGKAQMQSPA

[2] = Solubility of the compound in pH 8 Britton-Robinson buffer at 24 hrs; type: physicochemical
[3] = target: T2, Suppressor of tumorigenicity 14 protein (Homo sapiens, UniProt Q9Y5Y6); assay: Inhibition of recombinant human N-terminal met-His6-tagged matriptase catalytic domain (Gly596 to Val855 residues) expressed in Escherichia coli using Boc-QAR-AMC as substrate after 40 mins by fluorescence intensity assay
T2 sequence (Q9Y5Y6 whole entry): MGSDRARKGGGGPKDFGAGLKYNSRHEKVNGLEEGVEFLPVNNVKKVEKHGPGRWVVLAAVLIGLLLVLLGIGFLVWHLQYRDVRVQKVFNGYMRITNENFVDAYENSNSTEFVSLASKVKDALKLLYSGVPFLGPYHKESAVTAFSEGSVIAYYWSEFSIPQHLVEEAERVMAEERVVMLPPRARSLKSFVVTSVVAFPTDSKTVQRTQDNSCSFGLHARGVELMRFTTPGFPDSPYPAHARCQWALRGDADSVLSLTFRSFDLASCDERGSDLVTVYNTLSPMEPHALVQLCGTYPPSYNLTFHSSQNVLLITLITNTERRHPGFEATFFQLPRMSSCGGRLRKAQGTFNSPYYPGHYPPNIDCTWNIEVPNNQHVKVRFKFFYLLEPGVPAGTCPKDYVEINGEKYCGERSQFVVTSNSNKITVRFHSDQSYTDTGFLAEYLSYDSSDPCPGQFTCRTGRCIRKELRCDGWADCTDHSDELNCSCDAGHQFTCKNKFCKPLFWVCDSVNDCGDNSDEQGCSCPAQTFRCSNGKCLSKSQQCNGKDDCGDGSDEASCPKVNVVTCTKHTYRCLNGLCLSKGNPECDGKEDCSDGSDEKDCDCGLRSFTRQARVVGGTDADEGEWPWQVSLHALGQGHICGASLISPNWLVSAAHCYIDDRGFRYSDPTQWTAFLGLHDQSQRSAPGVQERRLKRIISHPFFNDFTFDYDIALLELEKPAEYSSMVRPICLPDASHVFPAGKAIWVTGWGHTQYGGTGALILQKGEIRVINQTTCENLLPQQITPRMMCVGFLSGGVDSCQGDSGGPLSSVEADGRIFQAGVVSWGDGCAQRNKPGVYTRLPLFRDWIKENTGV

Kallikrein-7 = Kallikrein-7 (Homo sapiens, UniProt P49862); assay: Inhibition of recombinant C-terminal 10His-tagged human KLK7 (Glu23 to His252 residues) expressed in mouse NS0 cells using 5-FAM-E-A-L-Y-L-V-S-G-C as substrate after 40 mins by fluorescence intensity assay
Kallikrein-7, sequence (P49862 whole entry): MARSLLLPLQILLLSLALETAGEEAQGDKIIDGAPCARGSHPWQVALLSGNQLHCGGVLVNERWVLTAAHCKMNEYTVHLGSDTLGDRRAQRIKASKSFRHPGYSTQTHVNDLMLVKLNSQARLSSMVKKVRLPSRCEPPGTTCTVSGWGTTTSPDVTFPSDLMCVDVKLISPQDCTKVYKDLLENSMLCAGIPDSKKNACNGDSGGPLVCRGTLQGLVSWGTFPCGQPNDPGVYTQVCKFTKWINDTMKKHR

IC50 (Kallikrein-8): 0.794 µM | solubility at 24 h [1]: 290 µg/mL (≈ 728 µM) | IC50 (Plasma kallikrein): 6.31 µM | solubility at 24 h [2]: 180 µg/mL (≈ 452 µM) | IC50 [3]: 25.1 µM | IC50 (Kallikrein-7): > 100 µM
SMILES: N=C(N)c1ccc(NCc2nc(-c3ccccc3)c[nH]2)cc1OCc1cccnc1
Selectivity Index (Homo sapiens): > 100
